Assay [1] concerns the target Mitotic checkpoint serine/threonine-protein kinase BUB1 (Homo sapiens, UniProt O43683). Briefly: Bub1 Kinase Assay: Recombinant fusion proteins of GST and human CDK2 and of GST and human CycE, expressed in insect cells (Sf9) and purified by Glutathion-Sepharose affinity chromatography, were purchased from ProQinase GmbH (Freiburg, Germany). As substrate for the kinase reaction biotinylated peptide biotin-Ttds-YISPLKSPYKISEG (C-terminus in amid form) was used which can be purchased e.g. form the company JERINI peptide technologies (Berlin, Germany). For the assay 50 nl of a 100 fold concentrated solution of the test compound in DMSO was pipetted into a black low volume 384 well microtiter plate (Greiner Bio-One, Frickenhausen, Germany), 2 ul of a solution of CDK2/CycE in aqueous assay buffer [50 mM Tris/HCl pH 8.0, 10 mM MgCl2, 1.0 mM dithiothreitol, 0.1 mM sodium ortho-vanadate, 0.01% (v/v) Nonidet-P40 (Sigma)] were added and the mixture was incubated for 15 min at 22° C. to allow pre-binding of the test compounds to the enzyme before the start of the kinase reaction. Then the kinase reaction was started by the addition of 3 ul of a solution of adenosine-tri-phosphate (ATP, 16.7 uM=>final conc. in the 5 ul assay volume is 10 uM) and substrate (1.25 uM=>final conc. in the 5 ul assay volume is 0.75 uM) in assay buffer and the resulting mixture was incubated for a reaction time of 25 min at 22° C. […].

Assay [2] addresses T1, Dual specificity protein kinase TTK (Homo sapiens, UniProt P33981).
T1 sequence (P33981 whole entry): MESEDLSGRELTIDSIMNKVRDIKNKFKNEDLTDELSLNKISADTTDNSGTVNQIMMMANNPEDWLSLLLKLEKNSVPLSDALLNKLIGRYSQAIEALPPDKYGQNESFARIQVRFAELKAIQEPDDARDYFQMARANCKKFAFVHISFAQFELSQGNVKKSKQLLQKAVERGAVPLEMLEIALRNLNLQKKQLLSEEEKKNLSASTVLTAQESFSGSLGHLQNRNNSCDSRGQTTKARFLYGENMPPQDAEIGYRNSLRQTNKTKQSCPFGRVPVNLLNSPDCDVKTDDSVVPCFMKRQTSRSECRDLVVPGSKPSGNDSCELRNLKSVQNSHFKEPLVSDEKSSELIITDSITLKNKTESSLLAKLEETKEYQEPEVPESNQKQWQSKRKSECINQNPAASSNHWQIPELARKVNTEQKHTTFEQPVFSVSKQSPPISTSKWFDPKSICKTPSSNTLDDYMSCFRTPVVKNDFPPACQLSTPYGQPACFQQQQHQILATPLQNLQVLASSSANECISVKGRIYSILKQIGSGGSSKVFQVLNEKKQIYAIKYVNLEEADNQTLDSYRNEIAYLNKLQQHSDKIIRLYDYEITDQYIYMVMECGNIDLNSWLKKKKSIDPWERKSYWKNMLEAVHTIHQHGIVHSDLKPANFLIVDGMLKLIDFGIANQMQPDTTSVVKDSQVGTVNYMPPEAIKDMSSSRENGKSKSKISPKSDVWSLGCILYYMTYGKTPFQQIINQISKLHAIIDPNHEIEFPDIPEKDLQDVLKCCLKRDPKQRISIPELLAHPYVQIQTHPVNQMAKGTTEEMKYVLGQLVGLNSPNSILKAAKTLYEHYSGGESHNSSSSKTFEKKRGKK
Briefly: Mps-1 Kinase Assay: N-terminally GST-tagged human full length recombinant Mps-1 kinase (purchased from Invitrogen, Karslruhe, Germany, cat. no PV4071) was used. As substrate for the kinase reaction a biotinylated peptide of the amino-acid sequence biotin-Ahx-PWDPDDADITEILG (C-terminus in amide form, purchased from Biosyntan GmbH, Berlin) was used. For the assay 50 nl of a 100-fold concentrated solution of the test compound in DMSO was pipetted into a black low volume 384 well microtiter plate (Greiner Bio-One, Frickenhausen, Germany), 2 ul of a solution of Mps-1 in assay buffer [0.1 mM sodium-ortho-vanadate, 10 mM MgCl2, 2 mM DTT, 25 mM Hepes pH 7.7, 0.05% BSA (w/v), 0.001% Pluronic F-127] were added and the mixture was incubated for 15 min at 22° C. to allow pre-binding of the test compounds to Mps-1 before the start of the kinase reaction. Then the kinase reaction was started by the addition of 3 ul of a solution of 16.7 uM adenosine-tri-phosphate (ATP, 16.7 uM=>final conc. in the 5 ul assay volume is 10 uM) and peptide substrate (1.67 uM=>final conc. in the 5 ul assay volume is 1 uM) in assay buffer and the resulting mixture was incubated for a reaction time of 60 min at 22° C. […].

Assay [3] in a line: […]: N-terminally His6-tagged recombinant catalytic domain of human Bub1 (amino acids 704-1085), expressed in insect cells (Hi5) and purified by Ni-NTA affinity chromatography and subsequent size exclusion chromatography, was used as enzyme. As substrate for the kinase reaction the biotinylated peptide biotin-Ahx-VLLPKKSFAEPG (C-terminus in amid form) was used which can be purchased e.g. form the company Biosyntan (Berlin, Germany). For the assay 50 nl of a 100 fold concentrated solution of the test compound in DMSO was pipetted into a black low volume 384 well microtiter plate (Greiner Bio-One, Frickenhausen, Germany), 2 ul of a solution of Bub1 in aqueous assay buffer [50 mM Tris/HCl pH 7.5, 10 mM magnesium chloride (MgCl2), 200 mM potassium chloride (KCl), 1.0 mM dithiothreitol (DTT), 0.1 mM sodium ortho-vanadate, 1% (v/v) glycerol, 0.01% (w/v) bovine serum albumine (BSA), 0.005% (v/v) Trition X-100 (Sigma), 1x Complete EDTA-free protease inhibitor mixture (Roche)] were added and the mixture was incubated for 15 min at 22° C. to allow pre-binding of the test compounds to the enzyme before the start of the kinase reaction. […].

This note sets out measurements from ChEMBL document CHEMBL5725343, “Amino-substituted isothiazoles” (2017).

Mitotic checkpoint serine/threonine-protein kinase BUB1, sequence (O43683 whole entry, the tested form may be a part): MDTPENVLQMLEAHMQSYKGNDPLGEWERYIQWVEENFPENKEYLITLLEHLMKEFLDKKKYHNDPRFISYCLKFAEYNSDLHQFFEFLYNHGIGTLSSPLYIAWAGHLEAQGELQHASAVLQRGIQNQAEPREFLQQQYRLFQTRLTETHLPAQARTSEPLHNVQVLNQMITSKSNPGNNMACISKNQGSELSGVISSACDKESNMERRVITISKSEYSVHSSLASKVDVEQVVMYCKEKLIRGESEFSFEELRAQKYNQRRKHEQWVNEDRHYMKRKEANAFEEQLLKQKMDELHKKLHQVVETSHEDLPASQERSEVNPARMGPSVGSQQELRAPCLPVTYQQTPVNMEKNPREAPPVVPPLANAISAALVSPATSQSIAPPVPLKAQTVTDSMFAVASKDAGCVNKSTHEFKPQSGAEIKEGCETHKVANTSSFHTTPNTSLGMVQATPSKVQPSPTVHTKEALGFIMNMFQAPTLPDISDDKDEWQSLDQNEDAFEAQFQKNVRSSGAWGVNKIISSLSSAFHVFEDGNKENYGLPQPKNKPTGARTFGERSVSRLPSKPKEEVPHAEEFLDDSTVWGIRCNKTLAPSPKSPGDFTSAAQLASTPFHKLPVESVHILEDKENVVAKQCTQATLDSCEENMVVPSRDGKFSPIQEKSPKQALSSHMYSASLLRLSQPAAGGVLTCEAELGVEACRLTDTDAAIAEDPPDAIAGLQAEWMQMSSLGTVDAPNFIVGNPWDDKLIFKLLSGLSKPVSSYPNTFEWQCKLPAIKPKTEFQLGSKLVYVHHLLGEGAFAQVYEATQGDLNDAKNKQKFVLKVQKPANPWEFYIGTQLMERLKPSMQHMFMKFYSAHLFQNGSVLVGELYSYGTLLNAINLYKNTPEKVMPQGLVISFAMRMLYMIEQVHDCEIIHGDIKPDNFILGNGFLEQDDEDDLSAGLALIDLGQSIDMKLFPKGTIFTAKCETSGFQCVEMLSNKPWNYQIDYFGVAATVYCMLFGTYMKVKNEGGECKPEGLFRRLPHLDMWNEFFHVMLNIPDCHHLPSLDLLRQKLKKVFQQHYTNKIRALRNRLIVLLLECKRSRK

By IC50 is commonly meant the concentration that inhibits the measured activity by half. Consider `Cc1nsc(Nc2cncc(-n3cccn3)n2)c1C(=O)Nc1ccc(F)c(F)c1`, for which the IC50 in assay [1] was 15 µM; in assay [2], more than 20 µM.
The like results for `Cc1nsc(Nc2cc(C#N)ccn2)c1C(=O)Nc1ccc(Oc2ccc(F)cc2F)nc1` were, in that order, more than 20 µM and more than 20 µM.
As to `COc1ccc(Oc2ccc(CC(=O)c3c(C)nsc3Nc3cc(C#N)ccn3)cn2)cc1`, the 50% inhibitory concentration (IC50) in assay [3] is more than 20 µM.
